Data: US9359363B2, “Identification of compounds that disperse TDP-43 inclusions” (priority 2011, dated 2016)

system: C. elegans expressing human WT TDP-43 (CK405); assay: Motor function in C. elegans expressing human WT TDP-43; assay type: in vivo; conditions: transgenic TDP-43 nematodes, line not specified
From the text: Determining whether compounds delay deterioration of motor function in C. elegans expressing TDP-43 in C. elegans: C. elegans is generally used as a simple in vivo model of disease bridging the gap between in vitro studies and in vivo studies in rodents (J Biol Chem, 2005. 280: 42655-68; J Neurosci, 2009. 29: 9210-8; Neurodegener Dis, 2010. 7: 68-75; each herein incorporated by reference in its entirety). Accordingly, C. elegans lines expressing TDP-43 (WT, G294A and A315T), obtained from Brian Kraemer, can be used to determine whether the indentified compounds ameliorate motor dysfunction associated with TDP-43 expression (J Neurosci, 2010. 30: 16208-19; herein incorporated by reference in its entirety). […] Movement and survival are calculated at adult days 1, 3 and 5, using methods described in the art (see, e.g., J. Neurosci. 2010 December 1, 30(48):16208-19; IEEE Trans Biomed Eng. 2004 October 51(10):1811-20, each herein incorporated by reference in its entirety).
In one example, eggs (C. elegans expressing A315T TDP-43, line CK426) were plated on agar containing the test compound. On day 4, movement of C. elegans was quantified and moved to plates with fresh compounds. On day 5, movement of C. elegans was again quantified. […]

Molecule	motor function
CCc1ccc(NC(=O)C(Cc2ccccc2)NS(=O)(=O)c2cccc3cccnc23)cc1 (stereo not drawn) [Compound 7]	improves motor function

system: non-transgenic N2 C. elegans; assay: Motor function in non-transgenic N2 C. elegans; assay type: in vivo; conditions: non-transgenic N2 line; FIG. 19 varying doses, FIG. 21 34.8 μM

Molecule	motor function
CCc1ccc(NC(=O)C(Cc2ccccc2)NS(=O)(=O)c2cccc3cccnc23)cc1 (stereo not drawn) [Compound 7]	improves motor function

system: TDP-43 inclusions in PC12 cells expressing WT TDP-43::GFP; assay: High-throughput screen for inhibition of TDP-43 inclusion formation in inducible TDP-43::GFP PC12 cells (IN Cell Analyzer); conditions: Rattus norvegicus, PC-12, 18 h, read-out: Inhibition of TDP-43 Inclusion Formation EC50
Protocol: We generated a Tet-Off inducible PC12 cell line (Clontech; the parent line stably expresses high levels of the Tetracycline binding protein) that is stably transfected with a WT TDP-43::GFP (where the GFP is at the C-terminus). […] The high-throughput screen used the arsenite (50 μM, 18 hrs) treatment protocol, where arsenite was added 1 hr after the test compounds.
We used the automated GE IN Cell Analyzer 1000 microscope system for high throughput analyses. Test chemicals were added to the cells 48 hrs after induction of TDP-43 (by removal of doxycycline). After another 24 hrs, the cells were fixed and double-stained with DAPI (to detect nuclei). Inclusions present in a collar around the nucleus but not fully co-localized with the DAPI stain (FIG. 1) were identified by the IN-Cell analyzer as inclusions. The computer counted the number of cells (based on DAPI-positive nuclei), TDP-43 levels and inclusions per field. The counts from 6 different fields within a well were averaged to develop a measure of the mean number of inclusions per field. This was repeated for every well in a 384 well plate and every plate in the library.
PC12 cells are grown in DMEM, 10% NBS/Pen-Strep, 100 μg/ml hygromycin, 50 μM puromycin and 50 μg/ml doxycycline (the latter is removed for TDP-43 induction).

Molecule	EC50
COc1c(C)c2c(c(O)c1C/C=C(\C)CCC(=O)O)C(=O)OC2 [Mycophenolic acid, reference compound]	1500 nM

same assay, conditions: read-out: Inhibition of TDP-43 Inclusion Formation EC50; PC12 TDP-43::GFP cells; arsenite 50 μM, 18 hrs; representative values

Molecule	EC50
Mithramycin A [reference compound]	2000 nM
COc1ccc(C2C(C(=O)Nc3ccccc3OC)=C(C)Nc3nc4ccccc4n32)cc1 (stereo not drawn) [Compound 5]	306 nM
COc1ccc(NC(=O)C(Cc2ccccc2)NS(=O)(=O)c2cccc3cccnc23)cc1 (stereo not drawn) [Compound 6]	15 nM
COc1cccc(CN2CCN(C(=O)c3cc4ccccc4[nH]3)CCC2=O)c1 [Compound 2-8]	180 nM
CC(C)(C)c1ccc(S(=O)(=O)Nc2ccc(SCc3nc(OCC(F)(F)F)cc(OCC(F)(F)F)n3)cc2)cc1 [Compound 2-1]	152 nM
OC1(c2ccccc2)CCN(CCCCOC(c2ccc(F)cc2)c2ccc(F)cc2)CC1 [Compound 2-3]	1920 nM
Cc1cc2cc(CCNS(=O)(=O)c3ccc(Cl)cc3)c(=O)[nH]c2cc1C [Compound 2-5]	1290 nM
C#CCNCC1(c2ccccc2)CCN(CCCCOC(c2ccc(F)cc2)c2ccc(F)cc2)CC1 [Compound 2-2]	290 nM
CCc1ccc(NC(=O)C(Cc2ccccc2)NS(=O)(=O)c2cccc3cccnc23)cc1 (stereo not drawn) [Compound 7]	139 nM
Cc1ccc2ncnc(Nc3cccc(Cl)c3)c2c1 [Compound 2-4]	10 nM
COCc1ccc(C(=O)NC(CC(C)C)c2nnc3n2CCN(Cc2cc4ccccc4o2)CC3)o1 (stereo not drawn) [Compound 2-7]	11 nM
COc1ccccc1OCC(=O)NC1CCCN(c2ccc(C(F)(F)F)cn2)C1 (stereo not drawn) [Compound 4]	98 nM
COc1cc(NC(=O)CCC2CCCN(Cc3ccc(F)c(OC)c3)C2)cc(OC)c1 (stereo not drawn) [Compound 3]	39 nM
CCN(CC1CCCN(CCc2ccccc2OC)C1)C(=O)c1cc2ccccc2[nH]1 (stereo not drawn) [Compound 2]	74 nM

system: mutant TDP-43 inclusions in human BE-M17 neuroblastoma cells; assay: Arsenite-induced TDP-43 inclusion formation in BE-M17 cells; assay type: cell-based; conditions: arsenite 0.5 mM, 1 hr, 10 μg/ml
From the text: The inventors transfected human BE-M17 neuroblastoma cells with WT TDP-43, TDP-4386-414 or TDP-43216-414 constructs N-terminally tagged with GFP. Full length WT TDP-43 localized to the nucleus under basal conditions (FIG. 15, WT TDP-43 shown). To investigate TDP-43 aggregation under the stressful conditions, cells were exposed to arsenite, an agent classically used to induce SGs (Biochem Soc Trans, 2002, 30, 963-9; J Cell Biol, 2000, 151, 1257-68; J Cell Biol, 1999, 147, 1431-42; each herein incorporated by reference in its entirety). Arsenite causes stress through multiple mechanisms (Toxicol Appl Pharmacol, 2001, 177, 132-48; herein incorporaed by reference in its entirety). Arsenite directly induces oxidative stress by reacting with oxygen in a reaction similar to the Fenton reaction, and arsenite also uses up glutathione, which causes further oxidative stress (Toxicol Appl Pharmacol, 2001, 177, 132-48; herein incorporaed by reference in its entirety). Upon exposure to arsenite (1 hr) WT TDP-43 remained largely nuclear, but a small amount translocated to the cytoplasm where it formed inclusions (FIG. 15A, right panels, arrows). To determine whether the inclusions co-localized with SGs, we co-labeled the cells with antibodies to SG markers, including TIA-1, eIF3 and poly-A binding protein (PABP) (FIG. 15). […] Co-localization with other SG markers is also observed. […]

Molecule	formation of inclusions composed of mutant TDP-43 constructs
C[C@@H]1C[C@@H]([C@H](O)CC2CC(=O)NC(=O)C2)C(=O)[C@@H](C)C1 [cycloheximide]	reversible
